Where two headings read alike, the source gives them in different places.
Experiments:
E. coli AW3110 = experiment: microbe, parasite or virus in culture; format: cell-based, Escherichia coli; settings: for IC50: read-out: concentration giving 50% inhibition
P. putida Aars1,2 = experiment: microbe, parasite or virus in culture; format: cell-based, Pseudomonas putida; settings: for IC50: read-out: concentration giving 50% inhibition
Mycobacterium bovis BCG = format: cell-based
[1] = molecular target: phosphinothricin N-acetyltransferase (SvPAT) (Streptomyces viridochromogenes, UniProt Q57146); experiment: N-acetyltransferase assay (DTNB) with SvPAT; format: biochemical, Streptomyces viridochromeogenes; settings: as substrate of PAT (SvPAT)
Chain of phosphinothricin N-acetyltransferase (SvPAT) (Q57146 whole entry, looked up): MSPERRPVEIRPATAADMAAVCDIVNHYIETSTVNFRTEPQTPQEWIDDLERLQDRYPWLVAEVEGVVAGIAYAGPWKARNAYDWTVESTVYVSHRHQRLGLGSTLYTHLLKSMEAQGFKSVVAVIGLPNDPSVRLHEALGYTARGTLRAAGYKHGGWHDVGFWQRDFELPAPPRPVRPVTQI

PpArsN1 = PpArsN1 (Pseudomonas putida, UniProt Q88LK7); settings: for PpArsN1 Specific activity: Substrate 50 μM, 37° C.
Chain of PpArsN1 (Q88LK7 1-186): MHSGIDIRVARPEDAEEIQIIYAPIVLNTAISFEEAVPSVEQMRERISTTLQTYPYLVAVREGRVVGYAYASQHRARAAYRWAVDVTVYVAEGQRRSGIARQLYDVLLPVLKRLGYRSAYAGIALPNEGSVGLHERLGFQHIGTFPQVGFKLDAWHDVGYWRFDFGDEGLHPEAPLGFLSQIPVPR

[2] = molecular target: glutamine synthetase (GS) from E. coli (Escherichia coli, UniProt P0A9C5); experiment: biochemical
Chain of glutamine synthetase (GS) from E. coli (P0A9C5 2-469): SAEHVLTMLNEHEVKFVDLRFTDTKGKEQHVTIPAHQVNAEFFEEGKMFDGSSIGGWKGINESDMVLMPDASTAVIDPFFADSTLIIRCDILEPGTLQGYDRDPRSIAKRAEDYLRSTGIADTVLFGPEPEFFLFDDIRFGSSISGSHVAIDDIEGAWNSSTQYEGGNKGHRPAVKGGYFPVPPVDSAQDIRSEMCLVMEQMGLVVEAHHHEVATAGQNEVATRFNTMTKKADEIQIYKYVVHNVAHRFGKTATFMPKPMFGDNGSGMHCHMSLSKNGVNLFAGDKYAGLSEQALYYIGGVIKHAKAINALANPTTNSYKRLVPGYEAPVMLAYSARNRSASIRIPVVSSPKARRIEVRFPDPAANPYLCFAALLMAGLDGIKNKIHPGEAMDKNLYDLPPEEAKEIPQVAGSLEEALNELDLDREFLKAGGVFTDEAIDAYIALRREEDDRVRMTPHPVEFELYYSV

Row | Compound | concentration giving nearly complete inhibition (E. coli AW3110) [µM] | effectiveness as an antibiotic compared with PT (E. coli AW3110) | toxicity (growth inhibition) compared with As(III) and MAs(III) (E. coli AW3110) | IC50 (E. coli AW3110) [nM] | concentration giving nearly complete inhibition (P. putida Aars1,2) [µM] | effectiveness as an antibiotic compared with PT (P. putida Aars1,2) | IC50 (P. putida Aars1,2) [nM] | inhibitory effect on mycobacterial growth (Mycobacterium bovis BCG) | Kcat [1] [s⁻¹] | Km [1] [µM] | cytotoxicity in human monocytes (THP-1 cells) | affinity of PpArsN1 compared with PT (PpArsN1) [fold] | PpArsN1 Specific activity (PpArsN1) [nmol/s/mg] | Kcat (PpArsN1; as substrate of PpArsN1) [s⁻¹] | Km (PpArsN1; as substrate of PpArsN1) [µM] | substrate quality for PpArsN1 (PpArsN1) | IC50 (E. coli AW3110; Escherichia coli, AW3110, 24 h) [nM] | IC50 (P. putida Aars1,2; Pseudomonas putida, 24 h) [nM] | Ki [2] [nM]
1 | C[As](=O)(O)CC[C@H](N)C(=O)O [AST, 2-amino-4-(hydroxymethylarsinoyl) butanoate] | 20 | approximately 30 fold | considerably more inhibitory than inorganic As (III) and is similar to that of highly toxic trivalent methylarsenite (MAs(III)) | ~3000 | 20 | approximately 30 fold | ~3000 | comparable with MSO and much higher than PT | 2.3 ± 0.1 | 12 ± 2 | benign and much less toxic compared to inorganic arsenite | 100 | 49.6 ± 0.8 | 1.7 ± 0.2 | 11 ± 3 |  |  |  | 
2 | methionine sulfoximine [MSO, reference compound] |  |  |  |  |  |  |  |  |  |  |  |  | 2.1 ± 0.1 |  |  | poor substrate |  |  | 
3 | CP(=O)(O)CCC(N)C(=O)O (racemic) [PT, phosphinothricin, reference compound] |  |  |  |  |  |  |  |  | 3.1 ± 0.0 |  |  |  | 13.9 ± 1.9 |  |  |  | 100000 | 100000 | 400 ± 150

Reference: patent US12414932B2, “Arsinothricin and methods of treating infections using arsinothricin” (priority 2018, dated 2025)
